Assay results taken from patent publication US7868173B2, “Prodrugs of benzoquinolizine-2-carboxylic acid” (Wockhardt Limited, priority 2006, dated 2011).

Key:
[1] = repeated intravenous administration, injectable form; cited from earlier work
[2] = Oral bioavailability in animals; assay type: in vivo
[3] = rats, intravenous route; cited from earlier work
[4] = Solubility analysis: aqueous solubility in buffer at physiological pH; assay type: physicochemical; details: 25-30° C.
Experimental: Solubility analysis: Method for determining aqueous solubility at different physiological pH at 25-30° C. temperature: To accurately weighed amount of test substance, particular buffer solution was added in portion (about 50 microliter portions) at 25-30° C. temperature till solid is completely dissolved and clear solution is obtained.

[5] = Pharmacokinetic (PK) study in Sprague Dawley rats, oral dose; assay type: in vivo; details: rat
Experimental: Method for pharmacokinetic (PK) study in Sprague Dawley rats: Pharmacokinetic study was conducted on male Sprague Dawley rats weighing 200-220 g fasted overnight. (2′S,5S)-9-fluoro-6,7-dihydro-8-(4-L-alaninyloxy-piperidin-1-yl)-5-methyl-1-oxo-1H,5H-benzo[i,j]-quinolizine-2-carboxylic acid methanesulfonic acid salt (A), (2′S,5S)-9-fluoro-6,7-dihydro-8-(4-L-alaninyloxy-piperidin-1-yl)-5-methyl-1-oxo-1H,5H-benzo[i,j]quinolizine-2-carboxylic acid hydrochloride salt (B) and (2′S,5S)-9-fluoro-6,7-dihydro-8-(4-L-valinyloxy-piperidin-1-yl)-5-methyl-1-oxo-1H,5H-benzo[i,j]quinolizine-2-carboxylic acid methanesulfonic acid salt (C) were dissolved in Milli Q water. Compounds A, B and C were administered at the dose of 50 mg/kg orally calculated on the basis of active ingredient. (5S)-9-fluoro -6,7-dihydro-8-(4-hydroxy-piperidin-1-yl)-5-methyl-1-oxo-1H,5H-benzo[i,j]quinolizine-2-carboxylic acid L-arginine salt (D) was dissolved in 1% Tween prior to use. Compounds A and D were administered at the dose of 200 mg/kg orally calculated on the basis of active ingredient. Dose volume was 0.5 ml/200g. Blood samples were collected at predetermined time intervals i.e. 0, 0.5, 1, 2, 4, 6 & 8 h in eppendorff vials containing 10 μl saturated solution of sodium fluoride. Plasma was collected after centrifugation of blood sample at 10000 rpm for 10 min. Plasma samples were analyzed on HPLC for determining drug levels. PK parameters AUC, Cmax were calculated by non-compartmental analysis by using Winnonlin software.

[6] = over the pH range 8.0-9.5 at 28° C.; cited from earlier work
[7] = as compared to B, 50 mg/kg per os dose
[8] = as compared to D, 200 mg/kg per os dose
[9] = as compared to D, 50 mg/kg per os dose

Compound: C[C@H]1CCc2c(N3CCC(O)CC3)c(F)cc3c(=O)c(C(=O)O)cn1c23.N=C(N)NCCC[C@H](N)C(=O)O.O.O.O.O [S-(−)-9-fluoro-6,7-dihydro-8-(4-hydroxypiperidin-1-yl)-5-methyl-1-oxo-1H,5H-benzo[i,j]quinolizine-2-carboxylic acid L-arginine salt tetrahydrate]
- venous inflammation [1]: not causing venous inflammation
- oral bioavailability [2]: poor

Compound: C[C@H]1CCc2c(N3CCC(O)CC3)c(F)cc3c(=O)c(C(=O)O)cn1c23.N=C(N)NCCC[C@H](N)C(=O)O [(5S)-9-fluoro-6,7-dihydro-8-(4-hydroxy-piperidin-1-yl)-5-methyl-1-oxo-1H,5H-benzo[i,j]quinolizine-2-carboxylic acid L-arginine salt]
- propensity to cause phlebitis [3]: lower propensity to cause phlebitis

Compound: CC(C)[C@H](N)C(=O)OC1CCN(c2c(F)cc3c(=O)c(C(=O)O)cn4c3c2CC[C@@H]4C)CC1.CS(=O)(=O)O
- Solubility (mg/ml) at pH 7 [4]: >200 mg/ml

Compound: C[C@H](N)C(=O)OC1CCN(c2c(F)cc3c(=O)c(C(=O)O)cn4c3c2CC[C@@H]4C)CC1.Cl
- Solubility (mg/ml) at pH 7 [4]: 4 mg/ml

Compound: CS(=O)(=O)O.C[C@H](N)C(=O)OC1CCN(c2c(F)cc3c(=O)c(C(=O)O)cn4c3c2CC[C@@H]4C)CC1 [A, (2′S,5S)-9-fluoro-6,7-dihydro-8-(4-L-alaninyloxy-piperidin-1-yl)-5-methyl-1-oxo-1H,5H-benzo[i,j]-quinolizine-2-carboxylic acid methanesulfonic acid salt]
- Solubility (mg/ml) at pH 7 [4]: >200 mg/ml
- % Increase in AUC [5, 7]: 175%
- % Increase in Cmax [5, 7]: 300%
- % Increase in AUC [5, 8]: 120%
- % Increase in Cmax [5, 8]: 200%

Compound: CC(C)[C@H](N)C(=O)OC1CCN(c2c(F)cc3c(=O)c(C(=O)O)cn4c3c2CC[C@@H]4C)CC1.CS(=O)(=O)O [C, (2′S,5S)-9-fluoro-6,7-dihydro-8-(4-L-valinyloxy-piperidin-1-yl)-5-methyl-1-oxo-1H,5H-benzo[i,j]quinolizine-2-carboxylic acid methanesulfonic acid salt]
- % Increase in AUC [5, 9]: 92%
- % Increase in Cmax [5, 9]: 97%

Compound: S-(−)-9-fluoro-6,7-dihydro-8-(4-hydroxypiperidin-1-yl)-5-methyl-1-oxo-1H,5H-benzo[i,j]quinolizine-2-carboxylic acid
- Solubility (mg/ml) at pH 7 [4]: <1 mg/ml
- aqueous solubility [6]: 800 to 2000 µg/mL
- oral bioavailability [2]: poor

Compound: C[C@H]1CCc2c(N3CCC(O)CC3)c(F)cc3c(=O)c(C(=O)[O-])cn1c23.[Na+] [S-(−)-9-fluoro-6,7-dihydro-8-(4-hydroxypiperidin-1-yl)-5-methyl-1-oxo-1H,5H-benzo[i,j]quinolizine-2-carboxylic acid sodium salt]
- propensity to cause phlebitis [3]: high propensity to cause phlebitis

Compound: CC(C)[C@H](N)C(=O)OC1CCN(c2c(F)cc3c(=O)c(C(=O)O)cn4c3c2CC[C@@H]4C)CC1 [(2′S,5S)-9-fluoro-6,7-dihydro-8-(4-L-valinyloxy-piperidin-1-yl)-5-methyl-1-oxo-1H,5H-benzo[i,j]quinolizine-2-carboxylic acid, reference compound]
- Solubility (mg/ml) at pH 7 [4]: <1 mg/ml
